In US20100267561A1, “HERBICIDAL PYRIDAZINONE DERIVATIVES” (priority 2007, published 2010):

Key:
Test in all cases: Test E pre-/postemergence plant response
Type in all cases: in vivo
Conditions in all cases: scale 0 to 100
[1] = test system: broadleaf signalgrass (Brachiaria platyphylla)
Outline: (§1)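 Greenhouse test. Compound, formulated in a non-phytotoxic solvent with surfactant, is applied preemergence to planted seeds and postemergence to 1- to 4-leaf plants of 2 to 18 cm. Plants are compared with controls after 14 to 21 days and scored 0 (no effect) to 100 (complete control).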

[2] = test system: Italian ryegrass (Lolium multiflorum)
Outline: as §1

[3] = test system: surinam grass (Brachiaria decumbens)
Outline: as §1

[4] = test system: barnyardgrass (Echinochloa crus-galli)
Outline: as §1

[5] = test system: large crabgrass (Digitaria sanguinalis)
Outline: as §1

[6] = test system: pitted morningglory (Ipomoea lacunosa)
Outline: as §1

[7] = test system: dallisgrass (Paspalum dilatatum)
Outline: as §1

[8] = test system: green foxtail (Setaria viridis)
Outline: as §1

[9] = test system: guineagrass (Panicum maximum)
Outline: as §1

[10] = test system: johnsongrass (Sorghum halepense)
Outline: as §1

[11] = test system: common mallow (Malva sylvestris)
Outline: as §1

[12] = test system: quackgrass (Elytrigia repens)
Outline: as §1

CCCc1cc(-c2ccc(Cl)cc2)nn1-c1c(O)cnn(C)c1=O [Compound 43]
Plant response rating, Signalgrass ([1]; 16 g ai/ha, Preemergence): 60
Plant response rating, Signalgrass ([1]; 31 g ai/ha, Preemergence): 100
Plant response rating, Signalgrass ([1]; Postemergence, 8 g ai/ha): 80
Plant response rating, Signalgrass ([1]; Postemergence, 16 g ai/ha): 80
Plant response rating, Signalgrass ([1]; Postemergence, 31 g ai/ha): 95
Plant response rating, Signalgrass ([1]; Postemergence, 62 g ai/ha): 98
Plant response rating, Ryegrass, Italian ([2]; 16 g ai/ha, Preemergence): 90
Plant response rating, Ryegrass, Italian ([2]; 31 g ai/ha, Preemergence): 90
Plant response rating, Ryegrass, Italian ([2]; 62 g ai/ha, Preemergence): 90
Plant response rating, Ryegrass, Italian ([2]; Postemergence, 8 g ai/ha): 50
Plant response rating, Ryegrass, Italian ([2]; Postemergence, 16 g ai/ha): 80
Plant response rating, Ryegrass, Italian ([2]; Postemergence, 31 g ai/ha): 100
Plant response rating, Ryegrass, Italian ([2]; Postemergence, 62 g ai/ha): 100
Plant response rating, Surinam Grass ([3]; 16 g ai/ha, Preemergence): 50
Plant response rating, Surinam Grass ([3]; 31 g ai/ha, Preemergence): 70
Plant response rating, Surinam Grass ([3]; 62 g ai/ha, Preemergence): 100
Plant response rating, Surinam Grass ([3]; Postemergence, 8 g ai/ha): 95
Plant response rating, Surinam Grass ([3]; Postemergence, 16 g ai/ha): 98
Plant response rating, Surinam Grass ([3]; Postemergence, 31 g ai/ha): 98
Plant response rating, Surinam Grass ([3]; Postemergence, 62 g ai/ha): 98
Plant response rating, Barnyardgrass ([4]; 16 g ai/ha, Preemergence): 50
Plant response rating, Barnyardgrass ([4]; 31 g ai/ha, Preemergence): 100
Plant response rating, Barnyardgrass ([4]; 62 g ai/ha, Preemergence): 100
Plant response rating, Barnyardgrass ([4]; Postemergence, 8 g ai/ha): 100
Plant response rating, Barnyardgrass ([4]; Postemergence, 16 g ai/ha): 100
Plant response rating, Barnyardgrass ([4]; Postemergence, 31 g ai/ha): 100
Plant response rating, Barnyardgrass ([4]; Postemergence, 62 g ai/ha): 100
Plant response rating, Crabgrass, Large ([5]; 16 g ai/ha, Preemergence): 0
Plant response rating, Crabgrass, Large ([5]; 31 g ai/ha, Preemergence): 70
Plant response rating, Crabgrass, Large ([5]; 62 g ai/ha, Preemergence): 80
Plant response rating, Crabgrass, Large ([5]; Postemergence, 8 g ai/ha): 30
Plant response rating, Crabgrass, Large ([5]; Postemergence, 16 g ai/ha): 60
Plant response rating, Crabgrass, Large ([5]; Postemergence, 31 g ai/ha): 80
Plant response rating, Crabgrass, Large ([5]; Postemergence, 62 g ai/ha): 80
Plant response rating, Morningglory ([6]; 16 g ai/ha, Preemergence): 0
Plant response rating, Morningglory ([6]; 31 g ai/ha, Preemergence): 20
Plant response rating, Morningglory ([6]; 62 g ai/ha, Preemergence): 30
Plant response rating, Morningglory ([6]; Postemergence, 8 g ai/ha): 0
Plant response rating, Morningglory ([6]; Postemergence, 16 g ai/ha): 0
Plant response rating, Morningglory ([6]; Postemergence, 31 g ai/ha): 0
Plant response rating, Morningglory ([6]; Postemergence, 62 g ai/ha): 0
Plant response rating, Dallisgrass ([7]; 16 g ai/ha, Preemergence): 40
Plant response rating, Dallisgrass ([7]; 31 g ai/ha, Preemergence): 80
Plant response rating, Dallisgrass ([7]; 62 g ai/ha, Preemergence): 90
Plant response rating, Dallisgrass ([7]; Postemergence, 8 g ai/ha): 0
Plant response rating, Dallisgrass ([7]; Postemergence, 31 g ai/ha): 20
Plant response rating, Dallisgrass ([7]; Postemergence, 62 g ai/ha): 50
Plant response rating, Foxtail, Green ([8]; 16 g ai/ha, Preemergence): 25
Plant response rating, Foxtail, Green ([8]; 31 g ai/ha, Preemergence): 85
Plant response rating, Foxtail, Green ([8]; 62 g ai/ha, Preemergence): 100
Plant response rating, Foxtail, Green ([8]; Postemergence, 8 g ai/ha): 75
Plant response rating, Foxtail, Green ([8]; Postemergence, 16 g ai/ha): 80
Plant response rating, Foxtail, Green ([8]; Postemergence, 31 g ai/ha): 80
Plant response rating, Foxtail, Green ([8]; Postemergence, 62 g ai/ha): 98
Plant response rating, Guineagrass ([9]; 16 g ai/ha, Preemergence): 95
Plant response rating, Guineagrass ([9]; 31 g ai/ha, Preemergence): 100
Plant response rating, Guineagrass ([9]; 62 g ai/ha, Preemergence): 100
Plant response rating, Guineagrass ([9]; Postemergence, 8 g ai/ha): 100
Plant response rating, Guineagrass ([9]; Postemergence, 16 g ai/ha): 100
Plant response rating, Guineagrass ([9]; Postemergence, 31 g ai/ha): 100
Plant response rating, Guineagrass ([9]; Postemergence, 62 g ai/ha): 100
Plant response rating, Johnsongrass ([10]; 16 g ai/ha, Preemergence): 0
Plant response rating, Johnsongrass ([10]; 31 g ai/ha, Preemergence): 50
Plant response rating, Johnsongrass ([10]; 62 g ai/ha, Preemergence): 60
Plant response rating, Johnsongrass ([10]; Postemergence, 8 g ai/ha): 15
Plant response rating, Johnsongrass ([10]; Postemergence, 16 g ai/ha): 25
Plant response rating, Johnsongrass ([10]; Postemergence, 31 g ai/ha): 65
Plant response rating, Mallow ([11]; 16 g ai/ha, Preemergence): 0
Plant response rating, Mallow ([11]; 31 g ai/ha, Preemergence): 0
Plant response rating, Mallow ([11]; 62 g ai/ha, Preemergence): 0
Plant response rating, Mallow ([11]; Postemergence, 8 g ai/ha): 0
Plant response rating, Mallow ([11]; Postemergence, 16 g ai/ha): 0
Plant response rating, Mallow ([11]; Postemergence, 31 g ai/ha): 0
Plant response rating, Mallow ([11]; Postemergence, 62 g ai/ha): 0
Plant response rating, Quackgrass ([12]; 16 g ai/ha, Preemergence): 70
Plant response rating, Quackgrass ([12]; 31 g ai/ha, Preemergence): 80
Plant response rating, Quackgrass ([12]; 62 g ai/ha, Preemergence): 95
Plant response rating, Quackgrass ([12]; Postemergence, 8 g ai/ha): 0
Plant response rating, Quackgrass ([12]; Postemergence, 16 g ai/ha): 0
Plant response rating, Quackgrass ([12]; Postemergence, 31 g ai/ha): 20
Plant response rating, Quackgrass ([12]; Postemergence, 62 g ai/ha): 75

CCOC(=O)Oc1cnn(C)c(=O)c1-n1nc(-c2ccc(Cl)cc2)cc1C [Compound 53]
Plant response rating, Signalgrass ([1]; 16 g ai/ha, Preemergence): 40
Plant response rating, Signalgrass ([1]; 31 g ai/ha, Preemergence): 98
Plant response rating, Signalgrass ([1]; 62 g ai/ha, Preemergence): 98
Plant response rating, Signalgrass ([1]; Postemergence, 8 g ai/ha): 90
Plant response rating, Signalgrass ([1]; Postemergence, 16 g ai/ha): 95
Plant response rating, Signalgrass ([1]; Postemergence, 31 g ai/ha): 95
Plant response rating, Signalgrass ([1]; Postemergence, 62 g ai/ha): 100
Plant response rating, Ryegrass, Italian ([2]; 16 g ai/ha, Preemergence): 90
Plant response rating, Ryegrass, Italian ([2]; 31 g ai/ha, Preemergence): 100
Plant response rating, Ryegrass, Italian ([2]; 62 g ai/ha, Preemergence): 100
Plant response rating, Ryegrass, Italian ([2]; Postemergence, 8 g ai/ha): 80
Plant response rating, Ryegrass, Italian ([2]; Postemergence, 16 g ai/ha): 100
Plant response rating, Ryegrass, Italian ([2]; Postemergence, 31 g ai/ha): 100
Plant response rating, Ryegrass, Italian ([2]; Postemergence, 62 g ai/ha): 100
Plant response rating, Surinam Grass ([3]; 16 g ai/ha, Preemergence): 100
Plant response rating, Surinam Grass ([3]; 31 g ai/ha, Preemergence): 100
Plant response rating, Surinam Grass ([3]; 62 g ai/ha, Preemergence): 100
Plant response rating, Surinam Grass ([3]; Postemergence, 8 g ai/ha): 90
Plant response rating, Surinam Grass ([3]; Postemergence, 16 g ai/ha): 90
Plant response rating, Surinam Grass ([3]; Postemergence, 31 g ai/ha): 100
Plant response rating, Surinam Grass ([3]; Postemergence, 62 g ai/ha): 100
Plant response rating, Barnyardgrass ([4]; 16 g ai/ha, Preemergence): 95
Plant response rating, Barnyardgrass ([4]; 31 g ai/ha, Preemergence): 100
Plant response rating, Barnyardgrass ([4]; 62 g ai/ha, Preemergence): 100
Plant response rating, Barnyardgrass ([4]; Postemergence, 8 g ai/ha): 100
Plant response rating, Barnyardgrass ([4]; Postemergence, 16 g ai/ha): 100
Plant response rating, Barnyardgrass ([4]; Postemergence, 31 g ai/ha): 100
Plant response rating, Barnyardgrass ([4]; Postemergence, 62 g ai/ha): 100
Plant response rating, Crabgrass, Large ([5]; 16 g ai/ha, Preemergence): 40
Plant response rating, Crabgrass, Large ([5]; 31 g ai/ha, Preemergence): 95
Plant response rating, Crabgrass, Large ([5]; 62 g ai/ha, Preemergence): 100
Plant response rating, Crabgrass, Large ([5]; Postemergence, 8 g ai/ha): 35
Plant response rating, Crabgrass, Large ([5]; Postemergence, 16 g ai/ha): 95
Plant response rating, Crabgrass, Large ([5]; Postemergence, 31 g ai/ha): 95
Plant response rating, Crabgrass, Large ([5]; Postemergence, 62 g ai/ha): 100
Plant response rating, Morningglory ([6]; 16 g ai/ha, Preemergence): 0
Plant response rating, Morningglory ([6]; 31 g ai/ha, Preemergence): 0
Plant response rating, Morningglory ([6]; 62 g ai/ha, Preemergence): 35
Plant response rating, Morningglory ([6]; Postemergence, 8 g ai/ha): 0
Plant response rating, Morningglory ([6]; Postemergence, 16 g ai/ha): 0
Plant response rating, Morningglory ([6]; Postemergence, 31 g ai/ha): 0
Plant response rating, Morningglory ([6]; Postemergence, 62 g ai/ha): 30
Plant response rating, Dallisgrass ([7]; 16 g ai/ha, Preemergence): 65
Plant response rating, Dallisgrass ([7]; 31 g ai/ha, Preemergence): 80
Plant response rating, Dallisgrass ([7]; 62 g ai/ha, Preemergence): 95
Plant response rating, Dallisgrass ([7]; Postemergence, 8 g ai/ha): 0
Plant response rating, Dallisgrass ([7]; Postemergence, 16 g ai/ha): 20
Plant response rating, Dallisgrass ([7]; Postemergence, 31 g ai/ha): 30
Plant response rating, Dallisgrass ([7]; Postemergence, 62 g ai/ha): 75
Plant response rating, Foxtail, Green ([8]; 16 g ai/ha, Preemergence): 20
Plant response rating, Foxtail, Green ([8]; 31 g ai/ha, Preemergence): 65
Plant response rating, Foxtail, Green ([8]; 62 g ai/ha, Preemergence): 100
Plant response rating, Foxtail, Green ([8]; Postemergence, 8 g ai/ha): 70
Plant response rating, Foxtail, Green ([8]; Postemergence, 16 g ai/ha): 80
Plant response rating, Foxtail, Green ([8]; Postemergence, 31 g ai/ha): 90
Plant response rating, Foxtail, Green ([8]; Postemergence, 62 g ai/ha): 100
Plant response rating, Guineagrass ([9]; 16 g ai/ha, Preemergence): 98
Plant response rating, Guineagrass ([9]; 31 g ai/ha, Preemergence): 100
Plant response rating, Guineagrass ([9]; 62 g ai/ha, Preemergence): 100
Plant response rating, Guineagrass ([9]; Postemergence, 8 g ai/ha): 90
Plant response rating, Guineagrass ([9]; Postemergence, 16 g ai/ha): 98
Plant response rating, Guineagrass ([9]; Postemergence, 31 g ai/ha): 100
Plant response rating, Guineagrass ([9]; Postemergence, 62 g ai/ha): 100
Plant response rating, Johnsongrass ([10]; 16 g ai/ha, Preemergence): 70
Plant response rating, Johnsongrass ([10]; 31 g ai/ha, Preemergence): 90
Plant response rating, Johnsongrass ([10]; 62 g ai/ha, Preemergence): 95
Plant response rating, Johnsongrass ([10]; Postemergence, 8 g ai/ha): 50
Plant response rating, Johnsongrass ([10]; Postemergence, 16 g ai/ha): 100
Plant response rating, Johnsongrass ([10]; Postemergence, 31 g ai/ha): 100
Plant response rating, Johnsongrass ([10]; Postemergence, 62 g ai/ha): 100
Plant response rating, Mallow ([11]; 62 g ai/ha, Preemergence): 0
Plant response rating, Mallow ([11]; Postemergence, 8 g ai/ha): 0
Plant response rating, Mallow ([11]; Postemergence, 16 g ai/ha): 0
Plant response rating, Mallow ([11]; Postemergence, 31 g ai/ha): 0
Plant response rating, Mallow ([11]; Postemergence, 62 g ai/ha): 0
Plant response rating, Quackgrass ([12]; 16 g ai/ha, Preemergence): 35
Plant response rating, Quackgrass ([12]; 31 g ai/ha, Preemergence): 65
Plant response rating, Quackgrass ([12]; 62 g ai/ha, Preemergence): 70
Plant response rating, Quackgrass ([12]; Postemergence, 8 g ai/ha): 0
Plant response rating, Quackgrass ([12]; Postemergence, 16 g ai/ha): 0
Plant response rating, Quackgrass ([12]; Postemergence, 31 g ai/ha): 0
Plant response rating, Quackgrass ([12]; Postemergence, 62 g ai/ha): 30
